Assay results from patent publication US9493528B2, “Microphthalmia-associated transcription factor-derived peptide and composition containing same” (KNU-INDUSTRY COOPERATION FOUNDATION, priority 2013, dated 2016).
No end group written: not given here.

Legend:
[1] = tested on: TRP-1; test: Gene expression of TRP-1 in B16F1 cells (RT-PCR); type: cell-based, mouse; details: α-MSH, 72 hours, FIG. 7
Description: (§1) B16F1 cells (Korean Cell Line Bank, Seoul) were added to each well of a 6-well plate (1.5×10^5 cells per well), along with 2 ml of DMEM, and then stabilized through incubating in a 5% CO2 incubator at 37° C. for 24 hours. α-MSH (Sigma Co, MO, USA), a melanocyte-stimulating hormone, was treated to each well, along with the peptide of SEQ ID NO: 3 in predetermined concentrations. After incubating the plate for 72 hours, the total RNAs were extracted therefrom and then cDNAs were synthesized. The cDNA syntheses were carried out with a Reverse Transcription Master premix (Elpisbiotech, Daejeon, Korea). Using each synthesized cDNA as a template, reverse transcription polymerase chain reaction (RT-PCR) was carried out with a ROTOR Q GENE apparatus. Each RT-PCR solution was prepared by mixing 1 μl of cDNA, 10 μl of TOPreal qRT-PCR2X premix (Enzynomics, Daejeon, Korea), 2 μl of primer set (10 pmol) and 7 μl of D. W. The RT-PCR was carried out as follows: initially at 94° C. for 10 minutes; and then at 94° C. for 10 seconds, at 58° C. for 30 seconds, and at 72° C. for 1 minute; 40 cycles.
(§2) The results obtained by measuring the gene expressions of tyrosinase, TRP-1 and TRP-2 through the above RT-PCR are shown in FIG. 7.

[2] = tested on: tyrosinase; test: Inhibitory activity against tyrosinase activity in mouse melanoma cell line B16F1 (L-DOPA); type: cell-based; details: B16F1 cells, α-MSH, 72 hours, extracts with L-DOPA 2 hours, absorbance at 490, FIG. 6
Description: B16F1 cells (Korean Cell Line Bank, Seoul) were added to each well of a 24-well plate (5×10^4 cells per well), along with 1 ml of DMEM, and then stabilized through incubating in a 5% CO2 incubator at 37° C. for 24 hours. α-MSH (Sigma Co, MO, USA), a melanocyte-stimulating hormone, was treated to each well, along with the peptide of SEQ ID NO: 3 in predetermined concentrations. After incubating the plate for 72 hours, the proteins were extracted therefrom. The obtained extracts were added to each well of a 96-well plate and then treated with a L-dihydroxyphenylalanine (L-DOPA) solution (100 μL) at 37° C. for 2 hours. After 2 hours, the pictures thereof were taken and the tyrosinase activities thereof were measured at […] with a microreader.

[3] = tested on: tyrosinase (TYR); test: Gene expression of tyrosinase in B16F1 cells (RT-PCR); type: cell-based, mouse; details: α-MSH, 72 hours, FIG. 7
Description: as §1, §2

[4] = tested on: TRP-2; test: Gene expression of TRP-2 in B16F1 cells (RT-PCR); type: cell-based, mouse; details: α-MSH, 72 hours, FIG. 7
Description: as §1, §2

[5] = tested on: B16F1 cells; test: Inhibitory activity against proliferation of mouse melanoma cell line B16F1 (CCK-8); type: cell-based; details: peptide 0.01, 0.1, 1 or 10 μM, 24, 48 and 72 hours, CCK-8, FIG. 8
Description: B16F1 cells (Korean Cell Line Bank, Seoul) were added to each well of a 96-well plate (5×10^3 cells per well), along with 100 μL of DMEM, and then incubated in a 5% CO2 incubator at 37° C. for 24 hours. The respective wells were treated with 10 μL of each peptide solution of SEQ ID NO: 3 having a concentration of 0.01, 0.1, 1, or 10 μM. After incubating the plate for 24, 48, and 72 hours, each well was treated with CCK-8 (Dojindo Laboratories, Japan) for 1 hour and then the absorbance thereof was measured at 450 nm, using a Spectramax plus 190 plate reader (Molecular Devices, USA).

[6] = tested on: mouse melanoma cell line B16F1; test: Inhibitory activity against melanin formation in mouse melanoma cell line B16F1; type: cell-based; details: B16F1 cells, α-MSH 100 nM, peptide 0.1, 1 and 10 μM, 24 hours, FIG. 5
Description: B16F1 cells (Korean Cell Line Bank, Seoul) were added to each well of a 6-well plate (1.5×10^5 cells per well), along with 2 ml of DMEM, and then incubated in a 5% CO2 incubator at 37° C. for 24 hours. α-MSH (Sigma Co, MO, USA) (100 nM) was treated to each well, along with the peptide of SEQ ID NO: 3 in the final concentrations of 0.1, 1, and 10 μM. The groups in which α-MSH (100 nM) and foskolin (Sigma Co, MO, USA) (10 μM) were respectively treated were used as positive controls. And also, the group having no treatment (i.e., no α-MSH (100 nM) treatment) and the group in which α-MSH (100 nM) and Kojic acid (Sigma Co, MO, USA) (800 μM) were treated were used as negative controls. After additionally incubating the plate for 24 hours, the pictures of each culture ware taken so as to compare the respective levels of melanin formation.

[7] = tested on: BCL-2; test: Inhibitory activity against BCL-2 expression in mouse melanoma cell line B16F1 (Western blotting); type: cell-based; details: B16F1 cells, UV-B 50 mJ/cm^2 plus peptide in predetermined concentrations, 24 hours, Western blot, FIG. 9
Description: The expression of BCL-2, playing a critical role in proliferation of melanocytes, is controlled by MITF. Whether the BCL-2 expression in melanocytes is inhibited by the treatment of the peptide of the present invention was evaluated, using a Western blotting assay. B16F1 cells (Korean Cell Line Bank, Seoul) were added to each well of a 6-well plate (1.5×10^5 cells per well), along with 2 ml of DMEM, and then incubated in a 5% CO2 incubator at 37° C. for 24 hours. Each well was treated with UV-B irradiation (50 mJ/cm^2) and the peptide of SEQ ID NO: 3 in predetermined concentrations. After incubating the plate for 24 hours, the proteins were extracted therefrom. The extracts were subject to the Western blotting assay using an anti-BCL-2 antibody (Santa Cruz Co., CA, USA).

α-melanocyte stimulating hormone (SYSMEHFRWGKPV; ends and bridges not checked; UniProt P01189 138-150, looked up) [α-MSH, melanocyte-stimulating hormone (Sigma), used as stimulus / positive control, reference compound]
expression of TRP-1 [1]: increased
tyrosinase activity [2]: increased
expression of tyrosinase (TYR) [3]: increased
expression of TRP-2 [4]: increased

Lys-Gly-Arg (KGR; Peptide fragment) [SEQ ID NO: 3, MITF-derived peptide fragment]
proliferation of B16F1 cells [5]: decreased in concentration-dependent manner
expression of TRP-1 [1]: decreased in concentration-dependent manner
tyrosinase activity [2]: decreased in concentration-dependent manner
expression of tyrosinase (TYR) [3]: decreased in concentration-dependent manner
melanin formation (colour of cell culture) [6]: decreased according to the concentrations of the peptide
expression of TRP-2 [4]: decreased in concentration-dependent manner
expression levels of BCL-2 [7]: reduced
